From PubChem BioAssay (NCI)
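At the GI50, growth is halved. TGI: concentration producing complete growth inhibition.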

Assays:
Test in all cases: DTP human tumour cell line panel, 384-well format
[1] = tested on: ACHN renal
[2] = tested on: SK-MEL-5 melanoma
[3] = tested on: NCI-H522 lung
[4] = tested on: MDA-MB-231 breast
[5] = tested on: HL-60(TB) leukemia
[6] = tested on: PC-3 prostate
[7] = tested on: HOP-62 NSCLC
[8] = tested on: SR leukemia
[9] = tested on: LOX IMVI melanoma
[10] = tested on: RPMI-8226 leukemia
[11] = tested on: SNB-19 CNS
[12] = tested on: OVCAR-4 ovarian
[13] = tested on: OVCAR-8 ovarian
[14] = tested on: RXF 393 renal
[15] = tested on: U251 glioblastoma
[16] = tested on: MOLT-4 leukemia
[17] = tested on: SN12C renal
[18] = tested on: HCC-2998 colon
[19] = tested on: SK-OV-3 ovarian
[20] = tested on: KM12 colon
[21] = tested on: A549 NSCLC
[22] = tested on: NCI/ADR-RES ovarian
[23] = tested on: OVCAR-5 ovarian
[24] = tested on: HS 578T breast
[25] = tested on: SF-295 CNS
[26] = tested on: DU-145 prostate
[27] = tested on: CAKI-1 renal
[28] = tested on: COLO 205 colon
[29] = tested on: MDA-MB-435 melanoma

## O=C(NC[C@H](O)CO)c1ccncc1Nc1ccc(I)cc1F
[1]
  GI50: 13.8 µM
  TGI: > 100 µM
[2]
  GI50: 0.0331 µM
  TGI: 13.9 µM
[3]
  GI50: 13.6 µM
  TGI: > 100 µM
[4]
  GI50: 0.449 µM
  TGI: 24.4 µM
[5]
  GI50: < 0.01 µM
  TGI: 0.0114 µM
[6]
  GI50: > 100 µM
  TGI: > 100 µM
[7]
  GI50: 0.25 µM
  TGI: > 100 µM
[8]
  GI50: 1.33 µM
  TGI: 15.9 µM
[9]
  GI50: 0.0887 µM
  TGI: 1.72 µM
[10]
  GI50: 7.66 µM
  TGI: 47.3 µM
[11]
  GI50: 13.2 µM
  TGI: > 100 µM
[12]
  GI50: 21.5 µM
  TGI: > 100 µM
[13]
  GI50: 27 µM
  TGI: > 100 µM
[14]
  GI50: 2.03 µM
  TGI: 17.4 µM
[15]
  GI50: 1.67 µM
  TGI: > 100 µM
[16]
  GI50: 12.3 µM
  TGI: 25.2 µM
[17]
  GI50: 4.09 µM
  TGI: > 100 µM
[18]
  GI50: 0.0278 µM
  TGI: 0.217 µM
[19]
  GI50: 23.1 µM
  TGI: > 100 µM
[20]
  GI50: 0.0953 µM
  TGI: > 100 µM
[21]
  GI50: 0.3 µM
  TGI: 18.8 µM
[22]
  GI50: 22.3 µM
  TGI: > 100 µM
[23]
  GI50: 0.0476 µM
  TGI: > 100 µM
[24]
  GI50: 16 µM
  TGI: > 100 µM
[25]
  GI50: 30.6 µM
  TGI: > 100 µM
[26]
  GI50: 8.45 µM
  TGI: > 100 µM
[27]
  GI50: 0.433 µM
  TGI: > 100 µM
[28]
  GI50: < 0.01 µM
  TGI: 0.171 µM
[29]
  GI50: 0.0134 µM
